The assay deals with T1, human neuropeptide Y5 receptor (Homo sapiens, UniProt Q15761).
T1 construct: expressed in transfected cells; host or cells: HEK-293 (stably transfected, G-418 selected); membranes
T1 sequence (Q15761 1-445): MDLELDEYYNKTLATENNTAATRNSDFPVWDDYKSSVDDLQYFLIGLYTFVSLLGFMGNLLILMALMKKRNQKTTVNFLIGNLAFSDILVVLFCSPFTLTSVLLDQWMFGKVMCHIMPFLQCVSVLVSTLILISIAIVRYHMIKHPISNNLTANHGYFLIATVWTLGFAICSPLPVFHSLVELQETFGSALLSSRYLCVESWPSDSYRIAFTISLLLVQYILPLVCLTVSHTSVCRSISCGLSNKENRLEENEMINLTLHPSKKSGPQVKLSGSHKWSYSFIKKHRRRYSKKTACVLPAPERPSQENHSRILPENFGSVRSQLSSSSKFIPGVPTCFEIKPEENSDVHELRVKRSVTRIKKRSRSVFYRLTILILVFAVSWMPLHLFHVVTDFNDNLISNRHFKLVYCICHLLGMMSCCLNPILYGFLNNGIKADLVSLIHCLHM
Put plainly: NPY5 HTS centrifugation assay: competition with 125I-PYY for binding to membranes of NPY5-transfected HEK293 cells. The conditions noted are these: 80 pM 125I-PYY, 1 hr room temperature; for % Inh @ 300 nM (% Inhibition of 125I-PYY Binding) / inhibition at 0.3 µM: 300 nM compound; for % Inh @ 3 uM (% Inhibition of 125I-PYY Binding) / inhibition at 3 µM: 3 uM compound; for inhibition at 0.3 µM: read-out: % Inh @ 300 nM (% Inhibition of 125I-PYY Binding); for inhibition at 3 µM: read-out: % Inh @ 3 uM (% Inhibition of 125I-PYY Binding). The method, then:
The compounds described in this invention were evaluated for binding to the human neuropeptide Y5 receptor.
Stably transfected cells served as the source for the membranes for the NPY5 receptor binding assay.
NPY5-transfected HEK293 cells were grown to confluence in 150 cm^2 culture dishes. […] Cells were then incubated in phosphate-buffered saline without Calcium and without Magnesium, supplemented with 2 mM EDTA. Cells were incubated for 10 minutes at room temperature and the cells were collected by repetitive pipeting. Cells were formed into pellets and then frozen at −80 until needed. Frozen pellets were homogenized with a polytron at full speed for 12 seconds in a homogenization buffer (20 mM Tris HCl, 5 mM EDTA, pH 7.4). Homogenates were centrifuged for 5 minutes at 4 C at 200 g. Supernatants were transferred to corex tubes and centrifuged for 25 minutes at 28,000 g. Pellets were re-suspended in Binding (20 mM HEPES, 10 mM NaCl, 0.22 mM KH2PO4, 1.3 mM CaCl2, 0.8 mM MgSO4, pH 7.4). Membranes were kept on ice until use.
Compounds to be tested were prepared as 10× stocks in binding buffer and added first to assay tubes (RIA vials, Sarstedt). […] To each tube is added 100 μL of membranes and the mixture is agitated by pipeting 2 times. Samples are incubated for 1 hr at room temperature. Aluminum cast plates (Sarstedt) containing the vials are then centrifuged 10 minutes at 3200 rpm in a Sorvall RT6000. Supernatant is then aspirated. To each vial 400 μL PBS is added and this is then aspirated again. Vials are then put in carrier polypropylene 12×75 tube and counted in gamma counter (Packard). Non-specific binding is determined in the presence of 300 nM NPY. […] These operations are known to those skilled in the art.

The text below walks through data of US7071195B2, “Amine and amide derivatives as ligands for the neuropeptide Y Y5 receptor useful in the treatment of obesity and other disorders” (Ortho-McNeil Pharmaceutical, Inc., priority 1999, dated 2006).

Structures can show the parent of a compound that is named as a salt.

Regarding `O=C(Cc1ccccc1)NC1CCN(CC(=O)NC2CCc3cc(F)ccc3C2Cc2cccnc2)CC1` (centres unmarked) [Compound 47], the “% Inh @ 300 nM (% Inhibition of 125I-PYY Binding)” value is 91% and the “% Inh @ 3 uM (% Inhibition of 125I-PYY Binding)” value came to 98%.
With `CC(C)(C)OC(=O)NC1CCN(CC(=O)NC2CCc3cc(F)ccc3C2Cc2cccnc2)C1` (mixture of isomers) [Compound 57], the “% Inh @ 300 nM (% Inhibition of 125I-PYY Binding)” value is reported as 87% and the “% Inh @ 3 uM (% Inhibition of 125I-PYY Binding)” value is listed as 93%.
On to `CCNC(CCCCNS(=O)(=O)c1ccccc1)CNC1CCc2ccccc2C1Cc1cccnc1` (mixture of isomers) [Compound 68], for which the “% Inh @ 300 nM (% Inhibition of 125I-PYY Binding)” value was determined as 109% and the “% Inh @ 3 uM (% Inhibition of 125I-PYY Binding)” value amounted to 108%.
On the same counts, the results for `CC(=O)NC(CCCCNS(=O)(=O)c1ccccc1)C(=O)NC1CCc2ccccc2C1Cc1cccnc1` (single isomer, unassigned) [Compound 38b] are 89% and 101%.
For `O=C(NC(CCCCNS(=O)(=O)c1ccccc1)C(=O)NC1CCc2ccccc2C1Cc1cccnc1)c1ccccc1` (mixture of isomers) [Compound 39], in that order: 70% and 95%.
On to `O=C(CN1CCC(NS(=O)(=O)c2ccccc2)C1)NC1CCc2cc(F)ccc2C1Cc1cccnc1` (mixture of isomers) [Compound 58], for which the “% Inh @ 300 nM (% Inhibition of 125I-PYY Binding)” value turned out to be 93% and the “% Inh @ 3 uM (% Inhibition of 125I-PYY Binding)” value worked out at 91%.
On to `NC(=O)NC(CCCCNS(=O)(=O)c1ccccc1)C(=O)NC1CCc2ccccc2C1Cc1cccnc1` (mixture of isomers) [Compound 41], for which the “% Inh @ 300 nM (% Inhibition of 125I-PYY Binding)” value worked out at 54% and the “% Inh @ 3 uM (% Inhibition of 125I-PYY Binding)” value came to 94%.
For `CC(=O)NC(CCCCNS(=O)(=O)c1ccccc1)C(=O)NC1CCc2ccccc2C1Cc1cccnc1` (single isomer, unassigned) [Compound 38a], in that order: 80% and 104%.
In the case of `O=C(CN1CCC(NS(=O)(=O)c2ccccc2)C1)NC1CCc2cc(F)ccc2C1Cc1cccnc1` (mixture of isomers) [Compound 59], the “% Inh @ 300 nM (% Inhibition of 125I-PYY Binding)” value is on record as 90% and the “% Inh @ 3 uM (% Inhibition of 125I-PYY Binding)” value is 93%.
On the same counts, the results for `COc1ccc2c(c1)CCC(NC(=O)CN1CCC(n3c(=O)[nH]c4ccccc43)CC1)C2Cc1ccsc1` (centres unmarked) [Compound 61] are 66% and 87%.
On the same counts, the results for `O=C(Nc1ccccc1)NC(CCCCNS(=O)(=O)c1ccccc1)C(=O)NC1CCc2ccccc2C1Cc1cccnc1` (mixture of isomers) [Compound 72] are 41% and 73%.
With `O=C(CN1CCC(NS(=O)(=O)c2ccccc2)C1)N[C@H]1CCc2cc(F)ccc2[C@H]1Cc1cccnc1` (relative stereo) [Compound 17, 3-[(Phenylsulfonyl)amino]-N-[cis-1,2,3,4-tetrahydro-6-fluoro-1-(3-pyridinylmethyl)-2-naphthalenyl]-1-pyrrolidineacetamide bis-trifluoroacetate], the inhibition at 0.3 µM stood at 98% and the inhibition at 3 µM worked out at 102%.
As for `O=C(CN1CCC(NC(=O)Nc2ccccc2)CC1)NC1CCc2ccccc2C1Cc1cccnc1` (centres unmarked) [Compound 51], the “% Inh @ 300 nM (% Inhibition of 125I-PYY Binding)” value is listed as 85% and the “% Inh @ 3 uM (% Inhibition of 125I-PYY Binding)” value came out at 102%.
On the same counts, the results for `CN(C)C(CCCCNS(=O)(=O)c1ccccc1)C(=O)NC1CCc2ccccc2C1Cc1cccnc1` (single isomer, unassigned) [Compound 43a] are 84% and 93%.
For `O=C(CN1CCC(NS(=O)(=O)c2ccccc2)CC1)NC1CCc2cc(F)ccc2C1Cc1cccnc1` (centres unmarked) [Compound 48], in that order: 97% and 103%.
On to `COc1ccc2c(c1)CC[C@H](NC(=O)CN1CCC(n3c(=O)[nH]c4ccccc43)CC1)[C@@H]2Cc1cccnc1` (relative stereo) [Compound 19, 4-(2,3-Dihydro-2-oxo-1H-benzimidazol-1-yl)-N-[cis-1,2,3,4-tetrahydro-6-methoxy-1-(3-pyridinylmethyl)-2-naphthalenyl]-1-piperidineacetamide Bis-hydrochloride], for which the inhibition at 0.3 µM was determined as 69% and the inhibition at 3 µM came to 101%.
On to `CC(C)(C)OC(=O)NC1CCN(CC(=O)NC2CCc3cc(F)ccc3C2Cc2cccnc2)CC1` (centres unmarked) [Compound 54], for which the “% Inh @ 300 nM (% Inhibition of 125I-PYY Binding)” value turned out to be 99% and the “% Inh @ 3 uM (% Inhibition of 125I-PYY Binding)” value amounted to 100%.
In the case of `O=C(NCC(Cc1cccnc1)c1ccc(F)cc1)[C@H]1CC[C@H](CNS(=O)(=O)c2ccccc2F)CC1` (relative stereo) [Compound 26, trans-N-[2-(4-fluorophenyl)-3-(3-pyridinyl)propyl]-4-[((2-fluorophenylsulfonyl)amino)methyl]-1-cyclohexanamide hydrochloride], the inhibition at 0.3 µM came to 108% and the inhibition at 3 µM was determined as 110%.
On to `O=C(CN1CCC(n2c(=O)[nH]c3ccccc32)CC1)NC1CCc2ccccc2C1Cc1cccnc1` (centres unmarked) [Compound 31], for which the “% Inh @ 300 nM (% Inhibition of 125I-PYY Binding)” value amounted to 91% and the “% Inh @ 3 uM (% Inhibition of 125I-PYY Binding)” value amounted to 100%.
Consider `O=C(CN1CCC(n2c(=O)[nH]c3ccccc32)CC1)NCC(Cc1cccnc1)c1ccc(O)cc1` (centres unmarked) [Compound 87], for which the “% Inh @ 300 nM (% Inhibition of 125I-PYY Binding)” value came out at 97% and the “% Inh @ 3 uM (% Inhibition of 125I-PYY Binding)” value is on record as 96%.
For `CC(C)(C)OC(=O)NC1CCN(CC(=O)NC2CCc3cc(F)ccc3C2Cc2cccnc2)C1` (mixture of isomers) [Compound 56], in that order: 88% and 94%.
`O=C(CN1CCC(NC(=O)c2ccccc2)C1)NC1CCc2cc(F)ccc2C1Cc1cccnc1` (mixture of isomers) [Compound 60]: the “% Inh @ 300 nM (% Inhibition of 125I-PYY Binding)” value came to 86% and the “% Inh @ 3 uM (% Inhibition of 125I-PYY Binding)” value is on record as 109%.
Take `O=C(CN1CCC(n2c(=O)[nH]c3ccccc32)CC1)N[C@H]1CCc2cc(O)ccc2[C@H]1Cc1cccnc1` (relative stereo) [Compound 23, 4-(2,3-Dihydro-2-oxo-1H-benzimidazol-1-yl)-N-[cis-1,2,3,4-tetrahydro-6-hydroxy-1-(3-pyridinylmethyl)-2-naphthalenyl]-1-piperidineacetamide bis-hydrochloride]: the inhibition at 0.3 µM was found to be 96% and the inhibition at 3 µM was determined as 100%.
Consider `NC(CCCCNS(=O)(=O)c1ccccc1)CNC1CCc2ccccc2C1Cc1cccnc1` (single isomer, unassigned) [Compound 66], for which the “% Inh @ 300 nM (% Inhibition of 125I-PYY Binding)” value is 98% and the “% Inh @ 3 uM (% Inhibition of 125I-PYY Binding)” value was found to be 102%.
For `CN(C)C(CCCCNS(=O)(=O)c1ccccc1)C(=O)NC1CCc2ccccc2C1Cc1cccnc1` (single isomer, unassigned) [Compound 43b], in that order: 62% and 86%.
